# Measured values: patent publication US8906928B2, “Substituted pyrazolo-pyrrolo-pyridine-dione compounds” (ArQule, Inc., priority 2009, dated 2014)
# System: DLD-1
# Experiment: MTS assay (cell growth inhibition), DLD-1
# Assay type: cell-based
# Settings: DLD-1 cells, 72 hours incubation with test compound; concentration not given
# Procedure, shortened: (§1)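 First, seed 3000 cells per well in low-serum (1% FBS) DMEM and culture 18 h. Next, add compounds prepared at 300× in DMSO and diluted 1:40 in DMEM; incubate 72 h. Finally, add MTS/PMS for 4 h and measure absorbance at 492 nm.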
row,Compound,MTS CELL KILL DATA (% INHIBITION) DLD-1
1,"O=C1c2cnc3[nH]ncc3c2C(=O)N1Cc1cccc(I)c1 [Example 101, 7-(3-iodobenzyl)pyrazolo[3,4-b]pyrrolo[3,4-d]pyridine-6,8(3H,7H)-dione]",B (B = 50-79% INHIBITION)
2,"O=C1c2cnc3[nH]ncc3c2C(=O)N1Cc1cccc(Br)c1 [Example 104, 7-(3-bromobenzyl)pyrazolo[3,4-b]pyrrolo[3,4-d]pyridine-6,8(3H ,7H)-dione]",A (A = 80-100% INHIBITION)
3,"O=C1c2cnc3[nH]ncc3c2C(=O)N1CC1CCCO1 (stereo not drawn) [Example 107, 7-(tetrahydrofuran-2-ylmethyl)pyrazolo[3,4-b]pyrrolo[3,4-d]pyridine-6,8(3H,7H)-dione]",C (C = <50% INHIBITION)
4,"COc1ccc(CN2C(=O)c3cnc4[nH]ncc4c3C2=O)c(Cl)c1 [Example 109, 7-(2-chloro-4-methoxybenzyl)pyrazolo[3,4-b]pyrrolo[3,4-d]pyridine-6,8(3H,7H)-dione]",A (A = 80-100% INHIBITION)
5,"O=C1c2cnc3[nH]ncc3c2C(=O)N1Cc1ccccc1I [Example 111, 7-(2-iodobenzyl)pyrazolo[3,4-b]pyrrolo[3,4-d]pyridine-6,8(3H,7H)-dione]",C (C = <50% INHIBITION)
6,"CCCC(C)CCN1C(=O)c2cnc3[nH]ncc3c2C1=O (stereo not drawn) [Example 114, 7-(3-methylhexyl)pyrazolo[3,4-b]pyrrolo[3,4-d]pyridine-6,8(3H,7H)-dione]",C (C = <50% INHIBITION)
7,"CC(CCN1C(=O)c2cnc3[nH]ncc3c2C1=O)CC(C)(C)C (stereo not drawn) [Example 117, 7-(3,5,5-trimethylhexyl)pyrazolo[3,4-b]pyrrolo[3,4-d]pyridine-6,8(3H,7H)-dione]",C (C = <50% INHIBITION)

# System: Kato III
# Experiment: MTS assay (cell growth inhibition), Kato III
# Assay type: cell-based
# Settings: Kato III cells, 72 hours incubation with test compound; concentration not given
# Procedure, shortened: as §1
row,Compound,MTS CELL KILL DATA (% INHIBITION) Kato III
1,"O=C1c2cnc3[nH]ncc3c2C(=O)N1Cc1cccc(I)c1 [Example 101, 7-(3-iodobenzyl)pyrazolo[3,4-b]pyrrolo[3,4-d]pyridine-6,8(3H,7H)-dione]",A (A = 80-100% INHIBITION)
2,"O=C1c2cnc3[nH]ncc3c2C(=O)N1Cc1cccc(Br)c1 [Example 104, 7-(3-bromobenzyl)pyrazolo[3,4-b]pyrrolo[3,4-d]pyridine-6,8(3H ,7H)-dione]",A (A = 80-100% INHIBITION)
3,"O=C1c2cnc3[nH]ncc3c2C(=O)N1CC1CCCO1 (stereo not drawn) [Example 107, 7-(tetrahydrofuran-2-ylmethyl)pyrazolo[3,4-b]pyrrolo[3,4-d]pyridine-6,8(3H,7H)-dione]",C (C = <50% INHIBITION)
4,"COc1ccc(CN2C(=O)c3cnc4[nH]ncc4c3C2=O)c(Cl)c1 [Example 109, 7-(2-chloro-4-methoxybenzyl)pyrazolo[3,4-b]pyrrolo[3,4-d]pyridine-6,8(3H,7H)-dione]",A (A = 80-100% INHIBITION)
5,"O=C1c2cnc3[nH]ncc3c2C(=O)N1Cc1ccccc1I [Example 111, 7-(2-iodobenzyl)pyrazolo[3,4-b]pyrrolo[3,4-d]pyridine-6,8(3H,7H)-dione]",C (C = <50% INHIBITION)
6,"CCCC(C)CCN1C(=O)c2cnc3[nH]ncc3c2C1=O (stereo not drawn) [Example 114, 7-(3-methylhexyl)pyrazolo[3,4-b]pyrrolo[3,4-d]pyridine-6,8(3H,7H)-dione]",C (C = <50% INHIBITION)
7,"CC(CCN1C(=O)c2cnc3[nH]ncc3c2C1=O)CC(C)(C)C (stereo not drawn) [Example 117, 7-(3,5,5-trimethylhexyl)pyrazolo[3,4-b]pyrrolo[3,4-d]pyridine-6,8(3H,7H)-dione]",C (C = <50% INHIBITION)

# System: MDA-MB
# Experiment: MTS assay (cell growth inhibition), MDA-MB
# Assay type: cell-based
# Settings: MDA-MB cells, 72 hours incubation with test compound; concentration not given
# Procedure, shortened: as §1
row,Compound,MTS CELL KILL DATA (% INHIBITION) MDA-MB
1,"O=C1c2cnc3[nH]ncc3c2C(=O)N1Cc1cccc(I)c1 [Example 101, 7-(3-iodobenzyl)pyrazolo[3,4-b]pyrrolo[3,4-d]pyridine-6,8(3H,7H)-dione]",A (A = 80-100% INHIBITION)
2,"O=C1c2cnc3[nH]ncc3c2C(=O)N1Cc1cccc(Br)c1 [Example 104, 7-(3-bromobenzyl)pyrazolo[3,4-b]pyrrolo[3,4-d]pyridine-6,8(3H ,7H)-dione]",A (A = 80-100% INHIBITION)
3,"O=C1c2cnc3[nH]ncc3c2C(=O)N1CC1CCCO1 (stereo not drawn) [Example 107, 7-(tetrahydrofuran-2-ylmethyl)pyrazolo[3,4-b]pyrrolo[3,4-d]pyridine-6,8(3H,7H)-dione]",B (B = 50-79% INHIBITION)
4,"COc1ccc(CN2C(=O)c3cnc4[nH]ncc4c3C2=O)c(Cl)c1 [Example 109, 7-(2-chloro-4-methoxybenzyl)pyrazolo[3,4-b]pyrrolo[3,4-d]pyridine-6,8(3H,7H)-dione]",A (A = 80-100% INHIBITION)
5,"O=C1c2cnc3[nH]ncc3c2C(=O)N1Cc1ccccc1I [Example 111, 7-(2-iodobenzyl)pyrazolo[3,4-b]pyrrolo[3,4-d]pyridine-6,8(3H,7H)-dione]",C (C = <50% INHIBITION)
6,"CCCC(C)CCN1C(=O)c2cnc3[nH]ncc3c2C1=O (stereo not drawn) [Example 114, 7-(3-methylhexyl)pyrazolo[3,4-b]pyrrolo[3,4-d]pyridine-6,8(3H,7H)-dione]",A (A = 80-100% INHIBITION)
7,"CC(CCN1C(=O)c2cnc3[nH]ncc3c2C1=O)CC(C)(C)C (stereo not drawn) [Example 117, 7-(3,5,5-trimethylhexyl)pyrazolo[3,4-b]pyrrolo[3,4-d]pyridine-6,8(3H,7H)-dione]",A (A = 80-100% INHIBITION)

# System: NCI-H1299
# Experiment: MTS assay (cell growth inhibition), NCI-H1299
# Assay type: cell-based
# Settings: NCI-H1299 cells, 72 hours incubation with test compound; concentration not given
# Procedure, shortened: as §1
row,Compound,MTS CELL KILL DATA (% INHIBITION) NCI-H1299
1,"O=C1c2cnc3[nH]ncc3c2C(=O)N1Cc1cccc(I)c1 [Example 101, 7-(3-iodobenzyl)pyrazolo[3,4-b]pyrrolo[3,4-d]pyridine-6,8(3H,7H)-dione]",C (C = <50% INHIBITION)
2,"O=C1c2cnc3[nH]ncc3c2C(=O)N1Cc1cccc(Br)c1 [Example 104, 7-(3-bromobenzyl)pyrazolo[3,4-b]pyrrolo[3,4-d]pyridine-6,8(3H ,7H)-dione]",A (A = 80-100% INHIBITION)
3,"O=C1c2cnc3[nH]ncc3c2C(=O)N1CC1CCCO1 (stereo not drawn) [Example 107, 7-(tetrahydrofuran-2-ylmethyl)pyrazolo[3,4-b]pyrrolo[3,4-d]pyridine-6,8(3H,7H)-dione]",C (C = <50% INHIBITION)
4,"COc1ccc(CN2C(=O)c3cnc4[nH]ncc4c3C2=O)c(Cl)c1 [Example 109, 7-(2-chloro-4-methoxybenzyl)pyrazolo[3,4-b]pyrrolo[3,4-d]pyridine-6,8(3H,7H)-dione]",A (A = 80-100% INHIBITION)
5,"O=C1c2cnc3[nH]ncc3c2C(=O)N1Cc1ccccc1I [Example 111, 7-(2-iodobenzyl)pyrazolo[3,4-b]pyrrolo[3,4-d]pyridine-6,8(3H,7H)-dione]",C (C = <50% INHIBITION)
6,"CCCC(C)CCN1C(=O)c2cnc3[nH]ncc3c2C1=O (stereo not drawn) [Example 114, 7-(3-methylhexyl)pyrazolo[3,4-b]pyrrolo[3,4-d]pyridine-6,8(3H,7H)-dione]",C (C = <50% INHIBITION)
7,"CC(CCN1C(=O)c2cnc3[nH]ncc3c2C1=O)CC(C)(C)C (stereo not drawn) [Example 117, 7-(3,5,5-trimethylhexyl)pyrazolo[3,4-b]pyrrolo[3,4-d]pyridine-6,8(3H,7H)-dione]",C (C = <50% INHIBITION)

# System: PACA-2
# Experiment: MTS assay (cell growth inhibition), PACA-2
# Assay type: cell-based
# Settings: PACA-2 cells, 72 hours incubation with test compound; concentration not given
# Procedure, shortened: as §1
row,Compound,MTS CELL KILL DATA (% INHIBITION) PACA-2
1,"O=C1c2cnc3[nH]ncc3c2C(=O)N1Cc1cccc(I)c1 [Example 101, 7-(3-iodobenzyl)pyrazolo[3,4-b]pyrrolo[3,4-d]pyridine-6,8(3H,7H)-dione]",C (C = <50% INHIBITION)
2,"O=C1c2cnc3[nH]ncc3c2C(=O)N1Cc1cccc(Br)c1 [Example 104, 7-(3-bromobenzyl)pyrazolo[3,4-b]pyrrolo[3,4-d]pyridine-6,8(3H ,7H)-dione]",A (A = 80-100% INHIBITION)
3,"O=C1c2cnc3[nH]ncc3c2C(=O)N1CC1CCCO1 (stereo not drawn) [Example 107, 7-(tetrahydrofuran-2-ylmethyl)pyrazolo[3,4-b]pyrrolo[3,4-d]pyridine-6,8(3H,7H)-dione]",C (C = <50% INHIBITION)
4,"COc1ccc(CN2C(=O)c3cnc4[nH]ncc4c3C2=O)c(Cl)c1 [Example 109, 7-(2-chloro-4-methoxybenzyl)pyrazolo[3,4-b]pyrrolo[3,4-d]pyridine-6,8(3H,7H)-dione]",A (A = 80-100% INHIBITION)
5,"O=C1c2cnc3[nH]ncc3c2C(=O)N1Cc1ccccc1I [Example 111, 7-(2-iodobenzyl)pyrazolo[3,4-b]pyrrolo[3,4-d]pyridine-6,8(3H,7H)-dione]",C (C = <50% INHIBITION)
6,"CCCC(C)CCN1C(=O)c2cnc3[nH]ncc3c2C1=O (stereo not drawn) [Example 114, 7-(3-methylhexyl)pyrazolo[3,4-b]pyrrolo[3,4-d]pyridine-6,8(3H,7H)-dione]",C (C = <50% INHIBITION)
7,"CC(CCN1C(=O)c2cnc3[nH]ncc3c2C1=O)CC(C)(C)C (stereo not drawn) [Example 117, 7-(3,5,5-trimethylhexyl)pyrazolo[3,4-b]pyrrolo[3,4-d]pyridine-6,8(3H,7H)-dione]",C (C = <50% INHIBITION)

# System: PC-3
# Experiment: MTS assay (cell growth inhibition), PC-3
# Assay type: cell-based
# Settings: PC-3 cells, 72 hours incubation with test compound; concentration not given
# Procedure, shortened: as §1
row,Compound,MTS CELL KILL DATA (% INHIBITION) PC-3
1,"O=C1c2cnc3[nH]ncc3c2C(=O)N1Cc1cccc(I)c1 [Example 101, 7-(3-iodobenzyl)pyrazolo[3,4-b]pyrrolo[3,4-d]pyridine-6,8(3H,7H)-dione]",A (A = 80-100% INHIBITION)
2,"O=C1c2cnc3[nH]ncc3c2C(=O)N1Cc1cccc(Br)c1 [Example 104, 7-(3-bromobenzyl)pyrazolo[3,4-b]pyrrolo[3,4-d]pyridine-6,8(3H ,7H)-dione]",A (A = 80-100% INHIBITION)
3,"O=C1c2cnc3[nH]ncc3c2C(=O)N1CC1CCCO1 (stereo not drawn) [Example 107, 7-(tetrahydrofuran-2-ylmethyl)pyrazolo[3,4-b]pyrrolo[3,4-d]pyridine-6,8(3H,7H)-dione]",B (B = 50-79% INHIBITION)
4,"COc1ccc(CN2C(=O)c3cnc4[nH]ncc4c3C2=O)c(Cl)c1 [Example 109, 7-(2-chloro-4-methoxybenzyl)pyrazolo[3,4-b]pyrrolo[3,4-d]pyridine-6,8(3H,7H)-dione]",A (A = 80-100% INHIBITION)
5,"O=C1c2cnc3[nH]ncc3c2C(=O)N1Cc1ccccc1I [Example 111, 7-(2-iodobenzyl)pyrazolo[3,4-b]pyrrolo[3,4-d]pyridine-6,8(3H,7H)-dione]",C (C = <50% INHIBITION)
6,"CCCC(C)CCN1C(=O)c2cnc3[nH]ncc3c2C1=O (stereo not drawn) [Example 114, 7-(3-methylhexyl)pyrazolo[3,4-b]pyrrolo[3,4-d]pyridine-6,8(3H,7H)-dione]",B (B = 50-79% INHIBITION)
7,"CC(CCN1C(=O)c2cnc3[nH]ncc3c2C1=O)CC(C)(C)C (stereo not drawn) [Example 117, 7-(3,5,5-trimethylhexyl)pyrazolo[3,4-b]pyrrolo[3,4-d]pyridine-6,8(3H,7H)-dione]",A (A = 80-100% INHIBITION)
